The text below walks through data of patent publication US20120115903A1, “Substituted Heteroaromatic Carboxamide and Urea Compounds as Vanilloid Receptor Ligands” (Gruenenthal GmbH, priority 2010, published 2012).

Holding throughout (format): cell-based
Test [1] addresses T1, vanilloid receptor 1 (VR1/TRPV1 receptor) (Homo sapiens, UniProt Q8NER1).
T1 construct: expressed in transfected cells; host or cells: CHO K1 cells (ECACC), stably transfected
The test can be described thus: FLIPR Ca2+ influx assay with CHO K1 cells transfected with the human VR1 gene, capsaicin stimulus. As to conditions: Cap = capsaicin (100 nM), Ki from IC50 by Cheng-Prusoff, read-out: Ki (human being) [nM] Cap. How it is done: Furthermore, preference may be given to compounds according to the invention of general formula (I) that cause a 50 percent displacement of capsaicin, which is present at a concentration of 100 nM, in a FLIPR assay with CHO K1 cells which were transfected with the human VR1 gene at a concentration of less than 2,000 nM, preferably less than 1,000 nM, particularly preferably less than 300 nM, most particularly preferably less than 100 nM, even more preferably less than 75 nM, additionally preferably less than 50 nM, most preferably less than 10 nM. In the process, the Ca^2+ influx is quantified in the FLIPR assay with the aid of a Ca^2+-sensitive dye (type Fluo-4, Molecular Probes Europe BV, Leiden, the Netherlands) in a fluorescent imaging plate reader (FLIPR, Molecular Devices, Sunnyvale, USA), as described hereinafter. The agonistic or antagonistic effect of the substances to be tested on the vanilloid receptor 1 (VR1) can also be determined using the following assay. In this assay, the influx of Ca^2+ through the channel is quantified with the aid of a Ca^2+-sensitive dye (type Fluo-4, Molecular Probes Europe BV, Leiden, the Netherlands) in a fluorescent imaging plate reader (FLIPR, Molecular Devices, Sunnyvale, USA). Chinese hamster ovary cells (CHO K1 cells, European Collection of Cell Cultures (ECACC) United Kingdom) are stably transfected with the VR1 gene. For functional testing, these cells are plated out on poly-D-lysine-coated black 96-well plates having a clear base (BD Biosciences, Heidelberg, Germany) at a density of 25,000 cells/well. The cells are incubated overnight at 37° C. and 5% CO2 in a culture medium (Ham's F12 nutrient mixture, 10% by volume of FCS (foetal calf serum), 18 μg/ml of L-proline). The next day the cells are incubated with Fluo-4 (Fluo-4 2 μM, 0.01% by volume of Pluronic F127, Molecular Probes in HBSS (Hank's buffered saline solution), Gibco Invitrogen GmbH, Karlsruhe, Germany) for 30 minutes at 37° C. Subsequently, the plates are washed three times with HBSS buffer and after further incubation for 15 minutes at RT used for Ca^2+ measurement in a FLIPR assay. The Ca^2+-dependent fluorescence is measured before and after the addition of the substances to be tested (λex wavelength=488 nm, λem=540 nm). Quantification is carried out by measuring the highest fluorescence intensity (FC, fluorescence counts) over time. The FLIPR protocol consists of 2 substance additions. First the compounds to be tested (10 μM) are pipetted onto the cells and the Ca^2+ influx is compared with the control (capsaicin 10 μM) (% activation based on the Ca^2+ signal after the addition of 10 μM of capsaicin). After 5 minutes' incubation, 100 nM of capsaicin are applied and the Ca^2+ influx is also determined. Desensitising agonists and antagonists led to suppression of the Ca^2+ influx. The % inhibition is calculated compared to the maximum achievable inhibition with 10 μM of capsaicin. Starting from the percentage displacement caused by different concentrations of the compounds to be tested of general formula I, IC50 inhibitory concentrations which cause a 50-percent displacement of capsaicin were calculated. K, values for the test substances were obtained by conversion by means of the Cheng-Prusoff equation (Cheng, Prusoff; Biochem. Pharmacol. 22, 3099-3108, 1973). The affinity of the compounds according to the invention for the vanilloid receptor 1 (VR1/TRPV1 receptor) was determined as described hereinbefore (pharmacological methods I and II respectively). The compounds according to the invention of the above-indicated formula (I) display outstanding affinity to the VR1/TRPV1 receptor (Table 1.).

For test [2], the target named is T2, vanilloid receptor 1 (VR1/TRPV1 receptor) (Mus musculus, UniProt Q704Y3).
T2 construct: expressed in transfected cells; host or cells: CHO K1 cells (inferred: method II; method I is described for rat DRG neurons only)
The test can be described thus: FLIPR Ca2+ influx assay on vanilloid receptor 1, capsaicin stimulus (mouse). As to conditions: Cap = capsaicin, Ki from IC50 by Cheng-Prusoff. The source says: The agonistic or antagonistic effect of the substances to be tested on the vanilloid receptor 1 (VR1) can also be determined using the following assay. In this assay, the influx of Ca^2+ through the channel is quantified with the aid of a Ca^2+-sensitive dye (type Fluo-4, Molecular Probes Europe BV, Leiden, the Netherlands) in a fluorescent imaging plate reader (FLIPR, Molecular Devices, Sunnyvale, USA).
Chinese hamster ovary cells (CHO K1 cells, European Collection of Cell Cultures (ECACC) United Kingdom) are stably transfected with the VR1 gene. […] The Ca^2+-dependent fluorescence is measured before and after the addition of the substances to be tested (λex wavelength=488 nm, λem=540 nm). Quantification is carried out by measuring the highest fluorescence intensity (FC, fluorescence counts) over time.
The FLIPR protocol consists of 2 substance additions. […] After 5 minutes' incubation, 100 nM of capsaicin are applied and the Ca^2+ influx is also determined. […]
Starting from the percentage displacement caused by different concentrations of the compounds to be tested of general formula I, IC50 inhibitory concentrations which cause a 50-percent displacement of capsaicin were calculated. […]
The affinity of the compounds according to the invention for the vanilloid receptor 1 (VR1/TRPV1 receptor) was determined as described hereinbefore (pharmacological methods I and II respectively). […]

Test [3] deals with T1, vanilloid receptor 1 (VR1/TRPV1 receptor). Description: FLIPR Ca2+ influx assay with CHO K1 cells transfected with the human VR1 gene, capsaicin stimulus. As to conditions: read-out: inhibition (as a percentage), human being, Cap; for inhibition at 5 µM: @ 5 μM compound.
For test [4] the target is unchanged. The test can be described thus: Functional test on vanilloid receptor 1, 45° C. stimulus (human). As to conditions: read-out: IC50 (human being) [nM], 45° C.

T1 sequence (Q8NER1 whole entry): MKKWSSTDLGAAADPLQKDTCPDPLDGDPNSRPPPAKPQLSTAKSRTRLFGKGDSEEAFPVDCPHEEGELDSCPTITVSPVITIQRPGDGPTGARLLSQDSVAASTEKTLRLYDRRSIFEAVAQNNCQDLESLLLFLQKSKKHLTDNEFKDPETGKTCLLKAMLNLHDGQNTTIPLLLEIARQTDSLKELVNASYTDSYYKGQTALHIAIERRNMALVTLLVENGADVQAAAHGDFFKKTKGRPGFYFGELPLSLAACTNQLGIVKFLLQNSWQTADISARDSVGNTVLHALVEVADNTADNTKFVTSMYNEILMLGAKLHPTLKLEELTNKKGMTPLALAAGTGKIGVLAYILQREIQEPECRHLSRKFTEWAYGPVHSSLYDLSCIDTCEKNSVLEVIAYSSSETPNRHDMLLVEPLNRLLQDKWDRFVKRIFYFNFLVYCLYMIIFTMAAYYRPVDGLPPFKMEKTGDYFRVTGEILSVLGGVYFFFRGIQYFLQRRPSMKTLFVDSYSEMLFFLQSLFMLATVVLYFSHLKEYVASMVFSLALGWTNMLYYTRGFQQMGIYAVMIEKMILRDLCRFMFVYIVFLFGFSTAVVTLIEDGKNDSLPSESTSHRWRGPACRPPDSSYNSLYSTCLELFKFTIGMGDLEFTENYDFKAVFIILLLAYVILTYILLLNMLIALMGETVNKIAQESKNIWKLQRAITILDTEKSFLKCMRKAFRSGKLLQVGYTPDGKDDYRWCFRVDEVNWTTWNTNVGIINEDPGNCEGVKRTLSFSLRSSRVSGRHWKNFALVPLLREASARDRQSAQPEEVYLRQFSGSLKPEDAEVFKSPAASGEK
T2 sequence (Q704Y3 whole entry): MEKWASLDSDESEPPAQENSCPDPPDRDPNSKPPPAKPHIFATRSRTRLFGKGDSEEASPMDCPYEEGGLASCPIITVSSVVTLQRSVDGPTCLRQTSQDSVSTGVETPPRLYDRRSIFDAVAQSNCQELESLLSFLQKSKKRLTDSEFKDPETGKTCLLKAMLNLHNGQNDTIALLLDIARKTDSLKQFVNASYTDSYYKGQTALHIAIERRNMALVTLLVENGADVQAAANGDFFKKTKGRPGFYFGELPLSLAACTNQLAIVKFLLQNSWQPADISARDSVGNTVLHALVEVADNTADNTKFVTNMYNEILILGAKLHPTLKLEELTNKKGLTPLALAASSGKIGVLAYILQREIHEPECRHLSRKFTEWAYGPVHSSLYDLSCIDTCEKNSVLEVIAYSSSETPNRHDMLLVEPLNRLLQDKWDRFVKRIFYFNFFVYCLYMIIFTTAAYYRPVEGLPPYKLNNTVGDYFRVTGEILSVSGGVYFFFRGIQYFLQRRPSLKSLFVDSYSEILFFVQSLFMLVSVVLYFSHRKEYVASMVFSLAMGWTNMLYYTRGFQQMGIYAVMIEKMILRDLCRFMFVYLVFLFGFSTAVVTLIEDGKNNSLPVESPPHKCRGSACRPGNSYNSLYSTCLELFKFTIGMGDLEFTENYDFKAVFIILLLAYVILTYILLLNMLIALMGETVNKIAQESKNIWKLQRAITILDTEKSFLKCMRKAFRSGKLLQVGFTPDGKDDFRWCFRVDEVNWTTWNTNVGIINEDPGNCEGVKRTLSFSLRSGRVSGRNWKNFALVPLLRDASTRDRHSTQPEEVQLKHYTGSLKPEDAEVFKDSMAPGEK

Regarding `Cc1cccc(-n2nc(C(F)(F)F)cc2CNC(=O)C(C)c2cn(C)c3ccc(O)cc23)c1` (stereo not shown) [Example 5, 2-(5-hydroxy-1-methyl-1H-indol-3-yl)-N-((1-m-tolyl-3-(trifluoromethyl)-1H-pyrazol-5-yl)methyl)propanamide], the Ki (commonly a measure of affinity in units of concentration, obtained from inhibition or displacement) worked out at 0.6 nM in test [1] and 38.5 nM in test [2].
For the compound `CC(C(=O)NCc1cc(C(F)(F)F)nn1-c1cccc(Cl)c1)c1cn(C)c2ccc(O)cc12` (stereo not shown) [Example 10, N-((1-(3-chlorophenyl)-3-(trifluoromethyl)-1H-pyrazol-5-yl)methyl)-2-(5-hydroxy-1-methyl-1H-indol-3-yl)propanamide], the Ki in test [1] turned out to be 0.4 nM; in test [2], 4.8 nM.
Regarding `CC(C(=O)NCc1cc(C(F)(F)F)nn1CC1CC1)c1cn(C)c2ccccc12` (stereo not shown) [Example 15, N-((1-(cyclopropylmethyl)-3-(trifluoromethyl)-1H-pyrazol-5-yl)methyl)-2-(1-methyl-1H-indol-3-yl)propanamide], the inhibition – broadly, the relative decrease from the control value, in per cent – at 5 µM in test [3] stood at 14%.
`O=C(NCc1cc(C(F)(F)F)nn1-c1cccc(Cl)c1)Nc1n[nH]c2ccccc12` [Example 16, 1-((1-(3-chlorophenyl)-3-(trifluoromethyl)-1H-pyrazol-5-yl)methyl)-3-(1H-indazol-3-yl)urea]: the inhibition at 5 µM in test [3] stood at 24%.
On to `Cn1nc(NC(=O)NCc2cc(C(F)(F)F)nn2-c2cccc(Cl)c2)c2cccnc21` [Example 17, 1-((1-(3-chlorophenyl)-3-(trifluoromethyl)-1H-pyrazol-5-yl)methyl)-3-(1-methyl-1H-pyrazolo[3,4-b]pyridin-3-yl)urea], for which, in test [3] (@ 1 μM compound), the inhibition at 1 µM amounted to 4%. For the same compound, in test [3], the inhibition at 5 µM is 30%.
With “N-((1-cyclopentyl-3-(trifluoromethyl)-1H-pyrazol-5-yl)methyl)-2-(5-hydroxy-1-methyl-1H-indol-3-yl)propanamide [Example 4]”, in test [4], the 50% inhibitory concentration (IC50) (in general, the concentration needed to halve the response being measured) amounted to 92 nM. For the same compound, the Ki in test [1] turned out to be 4.8 nM.
